Test results from patent US12162867B2, “Inhibitors of RNA helicase DHX9 and uses thereof” (ACCENT THERAPEUTICS, INC., priority 2022, dated 2024).

Tested on: circBRIP1 in HCT116 cells
Assay: DHX9 circBRIP1 cellular target engagement SYBR Green assay (qPCR)
Format: cell-based
Conditions: Homo sapiens, HCT-116, circBRIP1, HCT116 cells; SyBr assay (marked ^+); read-out: DHX9 Cellular Target Engagement EC50

SMILES | EC50 [µM]
CS(=O)(=O)Nc1cc(Cl)cc(NC(=O)c2cnn([C@@H]3CCCC[C@@H]3O)c2)c1 (relative stereo) [Example 153, N-(3-chloro-5-(methylsulfonamido)phenyl)-1-(2-cis-hydroxycyclohexyl)-1H-pyrazole-4-carboxamide] | 6.11
CS(=O)(=O)Nc1cc(Cl)cc(NC(=O)c2cnn([C@H]3CCC[C@H](O)C3)c2)c1 (single isomer, unassigned) [Example 152a] | > 10
CS(=O)(=O)Nc1cc(Cl)cc(NC(=O)c2cnn([C@H]3CC[C@H](O)CC3)c2)c1 (single isomer, unassigned) [Example 154] | > 10
CS(=O)(=O)Nc1cc(Cl)cc(NC(=O)c2cnn([C@@H]3CC[C@H]3O)c2)c1 (single isomer, unassigned) [Example 306a] | > 10
CS(=O)(=O)Nc1cc(Cl)cc(NC(=O)c2cnn([C@H]3CC[C@H]3O)c2)c1 (single isomer, unassigned) [Example 306b] | > 10
CS(=O)(=O)Nc1cc(Cl)cc(NC(=O)c2cn(-c3ccccc3)cn2)c1 [Example 1, N-(3-chloro-5-(methylsulfonamido)phenyl)-1-phenyl-1H-imidazole-4-carboxamide] | 16.4
CS(=O)(=O)Nc1cc(F)cc(NC(=O)c2c[nH]c(Br)c2)c1 [Example 2] | > 30
Cc1cc(C(=O)Nc2cc(F)cc(NS(C)(=O)=O)c2)c[nH]1 [Example 5] | > 30
CS(=O)(=O)Nc1cc(Cl)cc(NC(=O)c2c[nH]c(-c3ccccc3)n2)c1 [Example 6] | 9.34
CS(=O)(=O)Nc1cc(Cl)cc(NC(=O)c2cc(-c3ccccc3)co2)c1 [Example 7] | 24.2
CS(=O)(=O)Nc1cc(Cl)cc(NC(=O)c2cc(-c3ccccc3)c[nH]2)c1 [Example 8] | 5.52
CS(=O)(=O)Nc1cc(Cl)cc(NC(=O)c2nc(-c3ccccc3)c[nH]2)c1 [Example 9] | 30
Cc1ccc(C(=O)Nc2cc(Br)cc(NS(C)(=O)=O)c2)cc1-n1cccn1 [Example 10] | 12.3
Cc1sc(C(=O)Nc2cc(Cl)cc(NS(C)(=O)=O)c2)cc1-c1ccccc1 [Example 11] | 0.851
CS(=O)(=O)Nc1cc(Cl)cc(NC(=O)c2cccc(-c3cccc(C#N)c3)c2)c1 [Example 13] | 7.97
CS(=O)(=O)Nc1cc(I)cc(NC(=O)c2cc(-c3ccccc3)cs2)c1 [Example 16] | 3.51
CS(=O)(=O)Nc1cc(Br)cc(NC(=O)c2cc(-c3ccccc3OCc3ccccc3)cs2)c1 [Example 30] | 0.687
CS(=O)(=O)Nc1cc(Br)cc(NC(=O)c2cnn(-c3cc(C#N)ccn3)c2)c1 [Example 38] | 0.933
CS(=O)(=O)Nc1cc(Br)cc(NC(=O)c2cnn(-c3ccc(F)cn3)c2)c1 [Example 39] | 0.884
CS(=O)(=O)Nc1cc(Br)cc(NC(=O)c2cnn(-c3cnccn3)c2)c1 [Example 40] | 1.15
CS(=O)(=O)Nc1cc(Br)cc(NC(=O)c2cnn(-c3ccc(C#N)cn3)c2)c1 [Example 41] | 4.34

SMILES | EC50 [µM]
CS(=O)(=O)Nc1cc(Br)cc(NC(=O)c2cnn(-c3ccc(C(F)(F)F)cn3)c2)c1 [Example 43] | 4.71
Cc1cccc(C#N)c1-n1cc(C(=O)Nc2cc(Br)cc(NS(C)(=O)=O)c2)cn1 [Example 44] | 4.19
Cc1cccnc1-n1cc(C(=O)Nc2cc(Br)cc(NS(C)(=O)=O)c2)cc1C [Example 45] | 0.563
CS(=O)(=O)Nc1cc(Cl)cc(NC(=O)c2cnn(-c3ncccc3C#N)c2)c1 [Example 46] | 2.25
CS(=O)(=O)Nc1cc(Cl)cc(NC(=O)c2cnn(-c3ncccc3C(F)(F)F)c2)c1 [Example 47] | 6.73
CS(=O)(=O)Nc1cc(Br)cc(NC(=O)c2cnn(C3CCCCC3)c2)c1 [Example 48] | 1.41
CS(=O)(=O)Nc1cc(Br)cc(NC(=O)c2cnn(-c3ncccn3)c2)c1 [Example 50, N-(3-bromo-5-(methylsulfonamido)phenyl)-1-(pyrimidin-2-yl)-1H-pyrazole-4-carboxamide] | 0.895
CS(=O)(=O)Nc1cc(Br)cc(NC(=O)c2cnn(-c3cccc(C#N)c3)c2)c1 [Example 52] | 3.01
Cc1ccc(C#N)cc1-n1cc(C(=O)Nc2cc(Br)cc(NS(C)(=O)=O)c2)cn1 [Example 53] | 4.95
Cc1cccnc1-n1cc(C(=O)Nc2cc(Cl)cc(NS(C)(=O)=O)c2)cn1 [Example 54] | 0.953
CS(=O)(=O)Nc1cc(Br)cc(NC(=O)c2cnn(-c3cccc(C(F)F)n3)c2)c1 [Example 56] | 7.43
CS(=O)(=O)Nc1cc(Br)cc(NC(=O)c2cnn(-c3ccccc3C=O)c2)c1 [Example 58] | 1.41
CS(=O)(=O)Nc1cc(Br)cc(NC(=O)c2cc(-n3cccn3)cs2)c1 [Example 60] | 0.201
CC(Oc1cccnc1-n1cc(C(=O)Nc2cc(Cl)cc(NS(C)(=O)=O)c2)cn1)c1ccccc1 (stereo not shown) [Example 62] | 6.8
CS(=O)(=O)Nc1cc(Cl)cc(NC(=O)c2cnn(-c3ncccc3OCc3ccccn3)c2)c1 [Example 63] | 2.43
CS(=O)(=O)Nc1cc(Cl)cc(NC(=O)c2cnn(-c3ncccc3OCc3ccncc3)c2)c1 [Example 64] | 5.64
CS(=O)(=O)Nc1cc(Cl)cc(NC(=O)c2cnn(-c3ncccc3OCc3cnco3)c2)c1 [Example 66] | 4.87
CS(=O)(=O)Nc1cc(Cl)cc(NC(=O)c2cnn(-c3ncccc3OCc3ccccc3)c2)c1 [Example 68] | 0.278
CS(=O)(=O)Nc1cc(Cl)cc(NC(=O)c2cnn(-c3ncccc3OCc3ccc(F)cc3)c2)c1 [Example 69] | 0.661
CS(=O)(=O)Nc1cc(F)cc(NC(=O)c2cc(-c3ccccc3)cs2)c1 [Example 73] | 11.2
CCS(=O)(=O)Nc1cc(F)cc(NC(=O)c2cc(-c3ccccc3)cs2)c1 [Example 74] | 8.32

SMILES | EC50 [µM]
CS(=O)(=O)Nc1cc(Cl)cc(NC(=O)c2cc(-c3ccccc3)cs2)c1 [Example 75] | 1.64
CS(=O)(=O)Nc1cc(Br)cc(NC(=O)c2cc(-c3cccnc3)cs2)c1 [Example 78] | 0.457
CCn1cc(C(=O)Nc2cc(Cl)cc(NS(C)(=O)=O)c2)cc1-c1ccccc1 [Example 79, N-(3-chloro-5-(methylsulfonamido)phenyl)-1-ethyl-5-phenyl-1H-pyrrole-3-carboxamide] | 1.12
CS(=O)(=O)Nc1cc(Cl)cc(NC(=O)c2cc(-c3ccccc3)n(CC(F)(F)F)c2)c1 [Example 80] | 3.09
Cn1cc(C(=O)Nc2cc(Cl)cc(NS(C)(=O)=O)c2)cc1Br [Example 83, 5-bromo-N-(3-chloro-5-(methylsulfonamido)phenyl)-1-methyl-1H-pyrrole-3-carboxamide] | 0.911
Cc1cc(C(=O)Nc2cc(Br)cc(NS(C)(=O)=O)c2)cn1C1CCCCC1 [Example 85, N-(3-bromo-5-(methylsulfonamido)phenyl)-1-cyclohexyl-5-methyl-1H-pyrrole-3-carboxamide] | 2.76
CC(=O)N1CCN(c2ccc(-n3cc(C(=O)Nc4cc(Br)cc(NS(C)(=O)=O)c4)cn3)nc2)CC1 [Example 86, 1-(5-(4-acetylpiperazin-1-yl)pyridin-2-yl)-N-(3-bromo-5-(methylsulfonamido)phenyl)-1H-pyrazole-4-carboxamide] | 0.585
CC(=O)N1CCN(c2cnc(-n3cc(C(=O)Nc4cc(Br)cc(NS(C)(=O)=O)c4)cn3)c(C)c2)CC1 [Example 87] | 2.46
CN1CCN(c2ccc(-n3cc(C(=O)Nc4cc(Br)cc(NS(C)(=O)=O)c4)cn3)nc2)CC1=O [Example 88] | > 10
CN(C)C(=O)N1CCN(c2ccc(-n3cc(C(=O)Nc4cc(Cl)cc(NS(C)(=O)=O)c4)cn3)nc2)CC1 [Example 89] | 0.667
CS(=O)(=O)Nc1cc(Cl)cc(NC(=O)c2cnn(-c3ccc(N4CCCC4=O)cn3)c2)c1 [Example 90] | 1.06
CS(=O)(=O)Nc1cc(Cl)cc(NC(=O)c2cnn(-c3cc(N4CCOCC4)ccn3)c2)c1 [Example 91] | 0.382
CS(=O)(=O)Nc1cc(Br)cc(NC(=O)c2ccc3c(c2)[nH]c(=O)n3Cc2ccccc2)c1 [Example 99, 1-benzyl-N-(3-bromo-5-(methylsulfonamido)phenyl)-2-oxo-2,3-dihydro-1H-benzo[d]imidazole-5-carboxamide] | > 10
CS(=O)(=O)Nc1cc(Cl)cc(NC(=O)c2cccc(-c3ccnc(Cl)c3)c2)c1 [Example 102, N-(3-chloro-5-(methylsulfonamido)phenyl)-3-(2-chloropyridin-4-yl)benzamide] | > 30
CS(=O)(=O)Nc1cc(Br)cc(NC(=O)c2cnn(-c3ccccc3C(O)C(F)(F)F)c2)c1 (stereo not shown) [Example 103, N-(3-bromo-5-(methylsulfonamido)phenyl)-1-(2-(2,2,2-trifluoro-1-hydroxyethyl)phenyl)-1H-pyrazole-4-carboxamide] | 5.31
CS(=O)(=O)Nc1cc(Br)cc(NC(=O)c2cc(Cc3ccc[nH]3)cs2)c1 [Example 104, 4-((1H-pyrrol-2-yl)methyl)-N-(3-bromo-5-(methylsulfonamido)phenyl)-thiophene-2-carboxamide] | 5.49
CS(=O)(=O)Nc1cc(F)cc(NC(=O)c2cc(-c3cccnc3)cs2)c1 [Example 105, N-(3-fluoro-5-(methylsulfonamido)phenyl)-4-(pyridin-3-yl)thiophene-2-carboxamide] | 8.33
CS(=O)(=O)Nc1cc(Cl)cc(NC(=O)c2cc(-c3ccccc3O)cs2)c1 [Example 106] | 0.414
CS(=O)(=O)Nc1cc(Cl)cc(NC(=O)c2cc(-c3cccc(F)c3)cs2)c1 [Example 108] | 6.65
Cn1cc(C(=O)Nc2cc(Cl)cc(NS(C)(=O)=O)c2)cc1-c1ccccc1 [Example 109] | 0.437
CCS(=O)(=O)Nc1cc(Cl)cc(NC(=O)c2cc(-c3cccnc3)cs2)c1 [Example 110] | 2.71

Same assay, conditions: Homo sapiens, HCT-116, read-out: DHX9 Cellular Target Engagement EC50

SMILES | EC50 [µM]
CS(=O)(=O)Nc1cc(F)cc(NC(=O)c2cc(Br)cs2)c1 [Example 71, 4-bromo-N-(3-fluoro-5-(methylsulfonamido)phenyl)thiophene-2-carboxamide] | 26.3
